According to patent US12458599B2, “Bioactivatable devices and related methods” (CTI Vascular AG, priority 2020, dated 2025):
Read-outs that look alike come from different tables or passages of the source.

What was measured:
[1] = solubility of ATTM in solvents; type: physicochemical
From the text: Preparation of Exemplary Coating Formulations: (NH4)2MoS4 (“ATTM” or ammoniumtetrathiomolybdate) as a representative compound for a pharmaceutically active copper chelating agent can be dissolved in a suitable solvent including, without limitation dimethyl acetamide, dimethylsulfoxide or tetramethylurea to provide a desired saturation concentration. […] The concentrated ATTM solution can be mixed with a variety of suitable matrix polymers commonly known to one of ordinary skill in the art, including, without limitation PVDF-HVP, PET, PLGA, PLLA, PHA, polyurethanes, polyphosphazenes, silicones and equivalents, in a suitable volume ratio to form a readily available coating formulation with a defined polymer to ATTM weight ratio per ml coating formulation. The matrix polymer solvent can be chosen to be mutually compatible with the ATTM solvent in order to avoid potential phase separation. The obtained deep red to orange solution can be centrifuged, and the supernatant filtered through a 0.22 μm PTFE filter to remove any solid residue. The finally obtained ATTM concentration can be determined via UV-Vis spectroscopy.

[2] = tested on: venous endothelial cell proliferation; settings: cited from earlier work
[3] = cited from earlier work
IL-1α = settings: cited from earlier work
aqueous solubility = type: physicochemical
Procedure: Solubility: Information on the actual quantitative solubility of solid Molybdenum disulfide can be sparse, and the compound can be often quoted as being insoluble in water. […] Thus, upon prolonged contact between MoS2 coated surface with an aqueous medium, a saturation concentration of 0.125-1.25 μM MoO4^2− can reasonably be expected.

SMILES	solubility in acetone, acetonitrile, cyclohexanone, methylisobutylketone [1]	solubility in dimethylacetamide, tetramethylurea, dimethylsulfoxide, N-methylpyrrolidone, ethylendiamine, pyridine, methanol, ethanediol and water [1]	systemic concentration sufficient to achieve inhibition of venous endothelial cell proliferation [2] [µM]	aqueous solubility ([3]; reported)	concentration inhibiting the release of IL-1α (IL-1α) [nM]	saturation concentration of MoO4^2− (aqueous solubility; prolonged contact of MoS2 coated surface with aqueous medium, expected) [µM]	predicted maximum aqueous saturation concentration of the molybdate species (TM0) (aqueous solubility; stemming from MoS2) [µM]	aqueous solubility ([3]; aqueous environments) [µM]
[NH4+].[NH4+].[SH-].[SH-].[S]=[Mo]=[S] [ATTM, Ammoniumtetrathiomolybdate; (NH4)2MoS4]	limited solubility	reasonable solubility	5	at least 7 mM	250			
[S]=[Mo]=[S] [MoS2, Molybdenum disulfide]						0.125 to 1.25	1.25	0.125 to 1.25
